According to patent publication US8791102B2, “Acetanilide sphingosine-1-phosphate receptor antagonists” (Exelixis, Inc., priority 2008, dated 2014):

Biological target: T1, human S1P1 receptors (Homo sapiens, UniProt P21453)
T1 construct: host or cells: HEK293
Assay: S1P1R antagonist assay (fluorescent membrane potential dye, cAMP readout)
Format: cell-based
Conditions: HEK293 cells expressing human S1P1 receptors and CNG channel; 500 nM NECA; S1P1R agonist 10 nM; 90 minutes; read-out: EC50 or IC50 value
Text: The S1P1R antagonist assay is a fluorescent membrane potential dye measurement assay, indicative of intracellular cAMP changes due to G protein-coupled receptor activation. HEK293 cells engineered to express human S1P1 receptors and a cyclic nucleotide-gated (CNG) channel are obtained from BD Biosciences, 80300-250. The CNG channels are activated by elevated levels of cAMP, resulting in ion flux and cell membrane depolarization. Membrane depolarization is detected with a membrane potential dye. Stimulation of the cells with 5′-(N-ethylcarboxamido)adenosine (NECA), an A2b receptor agonist (Sigma, E2387), elicits an A2bR-dependent increase in cAMP.
Subsequent exposure of the cells to a S1P1R agonist suppresses the NECA induced increase in cAMP through S1P1R-specific signaling by inhibiting adenylyl cyclase and the formation of cAMP from ATP. The degree to which a test compound overcomes the S1P1R agonist suppression of the NECA induced increase in cAMP is a measure of S1P1R antagonist activity. Antagonist activity is quantified as the IC50 (i.e., the concentration needed to elicited one-half of the maximum response of the test compound) and/or as the EC50 (i.e., the concentration needed to elicited one-half of the NECA induced stimulation).
Day 1: Freshly thawed cells were plated into 384-well plates (Corning, 3683) at a density of 14,000 cells/well in 20 μL, complete media and incubated for 16 hours at 37° C., 5% CO2 and 99% relative humidity. Complete media included Dulbecco's modified Eagle's medium (Invitrogen, 11965-092), 10% Fetal bovine serum (Hyclone, SH30071.03), 250 μg/mL geneticin (Invitrogen, 10131-027), and 1 μg/mL Puromycin (Fluka, 82595).
Day 2: Membrane potential dye (20 μL, BD Biosciences, 341833) was added to each well and the plates were incubated for 2.5 hours at ambient temperature. Test compounds (20 μL) were added to the wells at various concentrations (≦10 μM, 1 to 3 dilutions) in a NECA base solution and incubated for 90 minutes in the presence of the S1P1R agonist {4-((4-phenyl-5-trifluoromethyl-2-thienyl)methoxy)benzyl}-3-azetidinecarboxylic acid (10 nM). The NECA-base solution contained Dulbecco's phosphate-buffered saline (Invitrogen, 14190-136), 2.5% DMSO (Fluka, 41648), 25 μM Ro 20-1724 (Sigma, B8279), and 500 nM NECA).
Assay plates were read with a PerkinElmer EnVision reader (Excitation 350 nm, Emission 590 nm) at time T=0 minutes, before compound addition and at time T=90 minutes. The signal was calculated as the ratio T90/T0. Data was analyzed in ActivityBase XE and graphs showing log of compound concentration (X-axis) vs. % activity (Y-axis) were generated for IC50 determinations. Percent activity was calculated with the following formula: (Signal−Agonist Control Signal)/(NECA Control Signal−Agonist Control Signal)×100.

T1 sequence (P21453 whole entry): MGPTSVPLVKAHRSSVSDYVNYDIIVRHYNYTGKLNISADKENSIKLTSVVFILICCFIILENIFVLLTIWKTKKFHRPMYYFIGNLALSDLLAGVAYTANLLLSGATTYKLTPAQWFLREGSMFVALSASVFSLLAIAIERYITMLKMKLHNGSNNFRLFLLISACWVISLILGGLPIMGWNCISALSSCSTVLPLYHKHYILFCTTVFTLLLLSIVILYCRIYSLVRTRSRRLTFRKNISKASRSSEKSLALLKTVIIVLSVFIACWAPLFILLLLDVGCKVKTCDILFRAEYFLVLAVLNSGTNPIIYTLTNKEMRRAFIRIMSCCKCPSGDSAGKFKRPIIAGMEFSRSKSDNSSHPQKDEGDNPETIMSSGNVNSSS

| IC50 [nM] | Structure (SMILES) |
| --- | --- |
| ≤ 300 | O=C(Cn1cncn1)N[C@@H](COCc1ccc(F)cc1)C(=O)Nc1ccc(Oc2ccc(F)cc2)cc1 [Compound 135, (S)-2-(2-(1H-1,2,4-triazol-1-yl)acetamido)-3-(4-fluorobenzyloxy)-N-(4-(4-fluorophenoxy)phenyl)propanamide] |
| > 1000 | CN(C)c1ccc(C(=O)NC(COCc2ccccc2)C(=O)Nc2ccc(Oc3ccccc3)cc2)cc1 (stereo not drawn) [Compound 294, 4-(dimethylamino)-N-(2-oxo-1-{[(phenylmethyl)oxy]methyl}-2-{[4-(phenyloxy)phenyl]amino}ethyl)benzamide] |
| ≤ 300 | O=C(Nc1ccc(Oc2ccc(F)cc2)cc1)[C@@H]1C[C@@H](Cc2ccccc2)CN1C(=O)C1CCOC1 (stereo partly drawn) [Compound 36, (2S,4R)-4-benzyl-N-(4-(4-fluorophenoxy)phenyl)-1-(tetrahydrofuran-3-carbonyl)pyrrolidine-2-carboxamide] |
| > 1000 | CC(C(=O)NC(COCc1ccccc1)C(=O)Nc1ccc(Oc2ccccc2)cc1)c1ccccc1 (stereo not drawn) [Compound 359, N-(2-oxo-1-{[(phenylmethyl)oxy]methyl}-2-{[4-(phenyloxy)phenyl]amino}ethyl)-2-phenylpropanamide] |
| > 1000 | O=C(CCc1c[nH]c2ccccc12)NC(COCc1ccccc1)C(=O)Nc1ccc(Oc2ccccc2)cc1 (stereo not drawn) [Compound 383, N-(2-oxo-1-{[(phenylmethyl)oxy]methyl}-2-{[4-(phenyloxy)phenyl]amino}ethyl)-3-(1H-indol-3-yl)propanamide] |
| ≤ 300 | O=C(CN1CCOCC1)N[C@@H](COCc1ccccc1)C(=O)Nc1ccc(Oc2ccc(F)cc2)cc1 [Compound 155, (S)-3-(benzyloxy)-N-(4-(4-fluorophenoxy)phenyl)-2-(2-morpholinoacetamido)propanamide] |
| ≤ 300 | CN(C(=O)Cc1c[nH]cn1)[C@@H](COCc1ccccc1)C(=O)Nc1ccc(Oc2ccccc2)cc1 [Compound 203, (S)-2-(2-(1H-imidazol-4-yl)-N-methylacetamido)-3-(benzyloxy)-N-(4-phenoxyphenyl)propanamide] |
| ≤ 300 | Cc1ccc(C[C@@H]2C[C@@H](C(=O)Nc3ccc(Oc4ccc(F)cc4)cc3)N(C(=O)Cn3ccnn3)C2)cc1 [Compound 3] |
| 300 to 1000 | CC(C)(C(=O)N[C@@H](COCc1ccccc1)C(=O)Nc1ccc(Oc2ccc(F)cc2)cc1)n1cncn1 [Compound 255, (S)-3-(benzyloxy)-N-(4-(4-fluorophenoxy)phenyl)-2-(2-methyl-2-(1H-1,2,4-triazol-1-yl)propanamido)propanamide] |

More lines, now with the values behind:

| Structure (SMILES) | IC50 [nM] |
| --- | --- |
| O=C(Nc1ccc(Oc2ccc(F)cc2)cc1)[C@@H]1CN(Cc2ccccc2)CCN1C(=O)Cn1cncn1 [Compound 261, (S)-1-(2-(1H-1,2,4-triazol-1-yl)acetyl)-4-benzyl-N-(4-(4-fluorophenoxy)phenyl)piperazine-2-carboxamide] | 300 to 1000 |
| CCCC(=O)NC(COCc1ccccc1)C(=O)Nc1ccc(Oc2ccccc2)cc1 (stereo not drawn) [Compound 273, N-(2-oxo-1-{[(phenylmethyl)oxy]methyl}-2-{[4-(phenyloxy)phenyl]amino}ethyl)butanamide] | > 1000 |
| COc1cccc(C[C@@H]2C[C@@H](C(=O)Nc3ccc(Oc4ccc(F)cc4)cc3)N(C(=O)Cn3ccnn3)C2)c1 [Compound 68, (2S,4R)-1-(2-(1H-1,2,3-triazol-1-yl)acetyl)-N-(4-(4-fluorophenoxy)phenyl)-4-(3-methoxybenzyl)pyrrolidine-2-carboxamide] | ≤ 300 |
| O=C(COc1ccccc1)NC(COCc1ccccc1)C(=O)Nc1ccc(Oc2ccccc2)cc1 (stereo not drawn) [Compound 289, N-(2-oxo-1-{[(phenylmethyl)oxy]methyl}-2-{[4-(phenyloxy)phenyl]amino}ethyl)phenoxyacetamide] | > 1000 |
| O=C(NC(COCc1ccccc1)C(=O)Nc1ccc(Oc2ccccc2)cc1)c1nc2ccccc2nc1O (stereo not drawn) [Compound 395, 3-hydroxy-N-(2-oxo-1-{[(phenylmethyl)oxy]methyl}-2-{[4-(phenyloxy)phenyl]amino}ethyl)quinoxaline-2-carboxamide] | > 1000 |
| O=C(Cc1cccc(Br)c1)N[C@@H](COCc1ccccc1)C(=O)Nc1ccc(Oc2ccc(F)cc2)cc1 [Compound 244, (S)-3-(benzyloxy)-2-(2-(3-bromophenyl)acetamido)-N-(4-(4-fluorophenoxy)phenyl)propanamide] | 300 to 1000 |
| Cc1ccc(C)c(CC(=O)NC(COCc2ccccc2)C(=O)Nc2ccc(Oc3ccccc3)cc2)c1 (stereo not drawn) [Compound 373, N-(2-oxo-1-{[(phenylmethyl)oxy]methyl}-2-{[4-(phenyloxy)phenyl]amino}ethyl)-2-(2,5-dimethylphenyl)acetamide] | > 1000 |
| O=C(CN1C(=O)CSC1=S)NC(COCc1ccccc1)C(=O)Nc1ccc(Oc2ccccc2)cc1 (stereo not drawn) [Compound 335, N-(2-oxo-1-{[(phenylmethyl)oxy]methyl}-2-{[4-(phenyloxy)phenyl]amino}ethyl)-2-(4-oxo-2-thioxothiazolidin-3-yl)acetamide] | > 1000 |
| CN(C)c1ccc(CC(=O)N2C[C@H](Cc3ccccc3)C[C@H]2C(=O)Nc2ccc(Oc3ccc(F)cc3)cc2)cc1 [Compound 35, (2S,4R)-4-benzyl-1-(2-(4-(dimethylamino)phenyl)acetyl)-N-(4-(4-fluorophenoxy)phenyl)pyrrolidine-2-carboxamide] | ≤ 300 |
| CCN(CC)C(=O)C1CCCN(CC(=O)N[C@@H](COCc2ccccc2)C(=O)Nc2ccc(Oc3ccc(F)cc3)cc2)C1 (stereo partly drawn) [Compound 231, 1-(2-((S)-3-(benzyloxy)-1-(4-(4-fluorophenoxy)phenylamino)-1-oxopropan-2-ylamino)-2-oxoethyl)-N,N-diethylpiperidine-3-carboxamide] | 300 to 1000 |
| C[C@@H]1CN(CC(=O)N[C@@H](COCc2ccccc2)C(=O)Nc2ccc(Oc3ccc(F)cc3)cc2)C[C@H](C)O1 [Compound 234, (S)-3-(benzyloxy)-2-(2-((2R,6S)-2,6-dimethylmorpholino)acetamido)-N-(4-(4-fluorophenoxy)phenyl)propanamide] | 300 to 1000 |
| COc1cccc(N2CCN(CC(=O)N[C@@H](COCc3ccccc3)C(=O)Nc3ccc(Oc4ccc(F)cc4)cc3)CC2)c1 [Compound 42, (S)-3-(benzyloxy)-N-(4-(4-fluorophenoxy)phenyl)-2-(2-(4-(3-methoxyphenyl)piperazin-1-yl)acetamido)propanamide] | > 1000 |
| CC(=O)N[C@@H](COCc1ccccc1)c1nc2cc(Oc3ccc(F)cc3)ccc2[nH]1 [Compound 60, (R)—N-(2-(benzyloxy)-1-(5-(4-fluorophenoxy)-1H-benzo[d]imidazol-2-yl)ethyl)acetamide] | > 1000 |
| O=C(CN1CCC(N2CCOCC2)CC1)N[C@@H](COCc1ccccc1)C(=O)Nc1ccc(Oc2ccc(F)cc2)cc1 [Compound 105, (S)-3-(benzyloxy)-N-(4-(4-fluorophenoxy)phenyl)-2-(2-(4-morpholinopiperidin-1-yl)acetamido)propanamide] | > 1000 |
| CN(C)CCC(=O)N[C@@H](COCc1ccccc1)C(=O)Nc1ccc(Oc2ccc(Cl)cc2)cc1 [Compound 209, (S)-3-(benzyloxy)-N-(4-(4-chlorophenoxy)phenyl)-2-(3-(dimethylamino)propanamido)propanamide] | 300 to 1000 |
| CCOc1ccc(CC(=O)NC(COCc2ccccc2)C(=O)Nc2ccc(Oc3ccccc3)cc2)cc1 (stereo not drawn) [Compound 343, N-(2-oxo-1-{[(phenylmethyl)oxy]methyl}-2-{[4-(phenyloxy)phenyl]amino}ethyl)-2-(4-ethoxyphenyl)acetamide] | > 1000 |
| O=C(Nc1ccc(Oc2ccc(F)cc2)cc1)[C@@H]1C[C@@H](Cc2ccccc2)CN1C(=O)CSc1ncccn1 [Compound 94, (2S,4R)-4-benzyl-N-(4-(4-fluorophenoxy)phenyl)-1-(2-(pyrimidin-2-ylthio)acetyl)pyrrolidine-2-carboxamide] | ≤ 300 |
| O=C(Nc1ccc(Oc2ccccc2)cc1)C(COCc1ccccc1)NC(=O)[C@H](O)Cc1ccccc1 (stereo partly drawn) [Compound 27, 3-(benzyloxy)-2-((R)-2-hydroxy-3-phenylpropanamido)-N-(4-phenoxyphenyl)propanamide] | > 1000 |
